# Literature values in US6376531B1, “Method of treatment using deuterium compounds” (priority 1998, dated 2002).
# What was measured:
# mice = conditions: Hayes and Palmer 1976, 1972
# mouse = conditions: Hayes and Palmer, Experientia 1976
SMILES,solubility in aqueous solutions,solubility in water,further results
[2H]O[2H] [Deuterium oxide],–,–,effect on the period and entrainment of the light-dark (LD) cycle (mice): chronomutagenic effect; spontaneous locomotor activity (mouse): suppressed
NCCc1c[nH]c2ccccc12 [Tryptamine],practically insoluble,–,–
N[C@@H](Cc1c[nH]c2ccc(O)cc12)C(=O)O [5-hydroxytryptophan],soluble,–,–

# More lines, main results first:
solubility in aqueous solutions,solubility in water,SMILES,further results
soluble,–,NCCc1c[nH]c2ccc(O)cc12 [Serotonin],–
freely soluble,–,NC[C@H](O)c1ccc(O)c(O)c1 [Norepinephrine],–
–,soluble,CSCC[C@H](N)C(=O)O [Methionine],–
–,soluble,N[C@@H](Cc1c[nH]c2ccccc12)C(=O)O [Tryptophan],–
soluble,soluble,COc1ccc2[nH]cc(CCNC(C)=O)c2c1 [Melatonin],–
